Assay results published in publication PMC9853328, “Potent Platinum(IV) Prodrugs That Incorporate a Biotin Moiety to Selectively Target Cancer Cells” (Pharmaceutics, 2022).
Several values for one entry are separate records, joined by “and”; a condition that tells them apart may be missing. Equal entries are not always repeated.

Key:
HT29 colon cancer cells = assay: MTT in vitro cytotoxicity assay, HT29; type: cell-based
Outline: (§1)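 In DMEM with 10% foetal bovine serum, cells received test agent for 72 h before MTT staining. An eight-point curve yielded GI50.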

U87 glioblastoma cells = assay: MTT in vitro cytotoxicity assay, U87; type: cell-based; settings: 72 h drug exposure, n = 3, read-out: GI50 ± SEM, U87
Outline: as §1

[1] = test system: A2780 ovarian cancer cells; assay: MTT in vitro cytotoxicity assay, A2780; type: cell-based; settings: 72 h drug exposure, n = 3, read-out: GI50 ± SEM, A2780
Outline: as §1

A431 skin cancer cells = assay: MTT in vitro cytotoxicity assay, A431; type: cell-based; settings: 72 h drug exposure, n = 3, read-out: GI50 ± SEM, A431
Outline: as §1

[2] = test system: Du145 prostate cancer cells; assay: MTT in vitro cytotoxicity assay, Du145; type: cell-based
Outline: as §1

[3] = test system: BE2-C neuroblastoma cells; assay: MTT in vitro cytotoxicity assay, BE2-C; type: cell-based; settings: 72 h drug exposure, n = 3, read-out: GI50 ± SEM, BE2-C
Outline: as §1

[4] = test system: cisplatin-resistant ADDP ovarian (subclone of A2780) cancer cells; assay: MTT in vitro cytotoxicity assay, ADDP; type: cell-based; settings: 72 h drug exposure, n = 3, read-out: GI50 ± SEM, ADDP
Outline: as §1

[5] = Lipophilicity by RP-HPLC (logkw); type: physicochemical; settings: capacity factor in 100% water
Protocol: HPLC experiments were carried out using an Agilent Technologies (Melbourne, Australia) 1260 Infinity instrument, equipped with a Phenomenex (Sydney, Australia) Onyx^TM Monolithic C18 reverse phase column (100 × 4.6 mm, 130 Å). The mobile phase was made up of 0.06% TFA in water (solvent A) and 0.06% TFA in an acetonitrile:water (9:1) mixture (solvent B). Samples were eluted over a gradient of 0–100% (% B) for 15 min, at a flow rate of 1 mL/min, with a sample injection volume of 10 µL. Eluting peaks were detected using a PDA at 254 nm.
For lipophilicity experiments, RP-HPLC was utilised to determine the logkw of each compound, similarly to what has been previously published for similar complexes. Samples were eluted at various isocratic percentages, ranging from 18–30% solvent B. To determine the dead volume of the column, potassium iodide was used as an external dead volume marker. The retention time of each sample in each isocratic run ( tr ) and the dead volume time ( t0 ) were both substituted in Equation (1) to calculate the capacity factor ( k ). (1) k=tr−t0/t0
Following this, logk was plotted against the percentage of ACN. For each complex, a minimum of four concentrations of ACN were used. This produced a linear graph with the equation in the form:(2) logk=Sφ+logkw where S is the slope, φ is the percentage of ACN, and logkw is the y-intercept, which represents the capacity factor of the compound in 100% water.
It is important to explore the lipophilicity of a drug, as it is widely believed that increased lipophilicity results in greater cellular accumulation. To understand the lipophilicity of 1–4, RP-HPLC was utilised to determine the logkw of each complex. To calculate this, each complex was eluted at different isocratic percentages, whereby the retention time was used in Equation (1) to calculate the capacity factor (k). The percentage of the organic solvent was then plotted against log k for each isocratic percentage, producing a linear equation that allowed for logkw to be deduced using Equation (2) (Figure S38). The logkw value represents the capacity factor of the compound in 100% water and can be used to compare a series of compounds. Since 1–4 comprise the same axially bound ligand, biotin, the lipophilicity was influenced by the groups on the PL. The logkw of each complex is presented in Table 1, with their corresponding PL. The increasing lipophilicity of the complexes followed the order: 1 < 4 < 2 < 3.

[6] = Reduction study with ascorbic acid via 1H NMR; type: physicochemical; settings: 5 mM complex in D2O with 10X PBS, ascorbic acid 5 mM, 37 °C, four experiments
Protocol: To confirm that the reduction of these prodrugs occurs and the axially bound biotin ligands are released from the cytotoxic platinum(II) core, reduction studies were undertaken using ^1H NMR experiments for 3. The complex was prepared in 5 mM D2O with 10X PBS. Ascorbic acid (5 mM) was added, and the reduction was monitored at 37 °C by ^1H NMR experiments. Over time, the resonances corresponding to the platinum(IV) species decreased, while new resonances corresponding to the platinum(II) species increased (Figure 7).

COc1cc[n+]2c3c1ccc1c(OC)cc[n+](c13)[Pt-2]21([OH])([O]C(=O)CCCC[C@@H]2SC[C@@H]3NC(=O)N[C@@H]32)[NH2+][C@H]2CCCC[C@@H]2[NH2+]1.O=[N+]([O-])[O-].O=[N+]([O-])[O-] [Complex 3, [Pt(4,7-dimethoxy-1,10-phenanthroline)(1S,2S-diaminocyclohexane)(biotin)(hydroxido)](NO3)2]
GI50 (HT29 colon cancer cells; MTT, 72 h drug exposure, n = 3, read-out: GI50 ± SEM, HT29): 130 ± 50 nM | number-fold potency against cisplatin, HT29 colon (HT29 colon cancer cells; ratio of GI50 values, 72 h): 87 fold | GI50 (U87 glioblastoma cells): 320 ± 60 nM | GI50 [1]: 370 ± 30 nM | GI50 (A431 skin cancer cells): 820 ± 220 nM | GI50 ([2]; MTT, 72 h drug exposure, n = 3, read-out: GI50 ± SEM, Du145): 120 ± 40 nM | number-fold potency against cisplatin, Du145 prostate ([2]; ratio of GI50 values, 72 h): 10 fold | GI50 [3]: 2000 ± 70 nM | GI50 [4]: 170 ± 20 nM | logkw [5]: 0.96 | reduction half-life [6]: ~ 30 ± 7 min and ~ 30 min
